From ChEMBL document CHEMBL3352240, “Upregulation of both heme oxygenase-1 and ATPase inhibitory factor 1 renders tumoricidal activity by synthetic flavonoids via depleting cellular ATP” (2014)
Calls of active or inactive are those of the source. The calls are words filed in the database; no cut-off is given here.

How the values were obtained:
[1] = tested on: MRC5; assay: Induction of ATPIF-1 expression in human MRC5 cells […] after 24 hrs by immunoblotting analysis relative to control; assay type: functional
[2] = tested on: MRC5; assay: Induction of HO-1 expression in human MRC5 cells […] after 24 hrs by immunoblotting analysis relative to control; assay type: functional
[3] = tested on: MRC5; assay: Cytotoxicity against human MRC5 cells at 30 uM by MTT assay in presence of H2O2; assay type: functional, cell-based
[4] = tested on: MRC5; assay: Cytotoxicity against human MRC5 cells by MTT assay in presence of H2O2; assay type: functional, cell-based
[5] = tested on: HT-29; assay: Cytotoxicity against human HT-29 cells at 30 uM after 24 hrs by MTT assay in presence of HO-1 inducer hemin; assay type: functional, cell-based
[6] = tested on: HCT-116; assay: Cytotoxicity against human HCT116 cells at 30 uM after 24 hrs by MTT assay in presence of HO-1 inhibitor siRNA; assay type: functional, cell-based
[7] = tested on: HT-29; assay: Induction of mitochondrial morphology changes in human HT-29 cells assessed as mitochondria with electron dense phenotype and well preserved cristae by microscopic analysis; assay type: functional, cell-based
[8] = tested on: HCT-116; assay: Cytotoxicity against human HCT116 cells at 20 uM after 24 to 48 hrs by MTT assay; assay type: functional, cell-based
[9] = tested on: HCT-116; assay: Cytotoxicity against human HCT116 cells after 24 to 48 hrs by MTT assay; assay type: functional, cell-based
[10] = tested on: HCT-116; assay: Cytotoxicity against human HCT116 cells at 10 to 50 uM by MTT assay; assay type: functional, cell-based; conditions: TDE = time-dependent effect
[11] = tested on: HCT-116; assay: Cytotoxicity against human HCT116 cells at 30 uM after 24 hrs by MTT assay in presence of HO-1 inhibitor ZnPP; assay type: functional, cell-based
[12] = tested on: HT-29; assay: Cytotoxicity against human HT-29 cells at 20 uM after 24 to 48 hrs by MTT assay; assay type: functional, cell-based
[13] = tested on: HCT-116; assay: Induction of mitochondrial morphology changes in human HCT116 cells assessed as swelling and damaged mitochondria by microscopic analysis; assay type: functional, cell-based
[14] = tested on: HCT-116; assay: Induction of cellular energetics impairment in human HCT116 cells assessed as cellular ATP level by Cell Titre-Glo assay relative to vehicle-treated control; assay type: functional
[15] = tested on: HCT-116; assay: Induction of ATPIF-1 expression in human HCT116 cells at 20 uM after 48 hrs relative to vehicle-treated control; assay type: functional, cell-based
[16] = tested on: MRC5; assay: Induction of apoptosis in human MRC5 cells assessed as downregulation of Bcl2 protein expression in presence of H2O2 by Western blotting method; assay type: functional, cell-based
[17] = tested on: HCT-116; assay: Induction of apoptosis in human HCT116 cells assessed as PARP cleavage at 20 uM after 48 hrs by Western blotting method; assay type: functional, cell-based
[18] = tested on: HT-29; assay: Induction of mitochondrial morphology changes in human HT-29 cells assessed as lipid bodies near mitochondria by microscopic analysis; assay type: functional, cell-based
[19] = tested on: MRC5; assay: Induction of apoptosis in human MRC5 cells assessed as downregulation of Bcl-XL protein expression in presence of H2O2 by Western blotting method; assay type: functional, cell-based
[20] = tested on: HT-29; assay: Induction of cellular energetics impairment in human HT-29 cells assessed as cellular ATP level by Cell Titre-Glo assay relative to vehicle-treated control; assay type: functional
[21] = tested on: HT-29; assay: Induction of ATPIF-1 expression in human HT-29 cells at 20 uM after 48 hrs relative to vehicle-treated control; assay type: functional, cell-based
[22] = tested on: HT-29; assay: Cytotoxicity against human HT-29 cells at 10 to 50 uM after 24 to 48 hrs by MTT assay; assay type: functional, cell-based
[23] = tested on: HCT-116; assay: Cytotoxicity against human HCT116 cells at 10 to 50 uM after 24 to 48 hrs by MTT assay; assay type: functional, cell-based

Compound	Ratio [1]	Ratio [2]	other results
C=C[C@@H](c1ccc(OC)c(OC)c1)c1c(OC)cc(O)c2c(=O)cc(-c3ccccc3)oc12	2	2.2	
C=C[C@@H](c1ccc(OC)c(OC)c1)c1c(O)cc(OC)c2c(=O)cc(-c3ccccc3)oc12	1.9	1.1	
C=C[C@@H](c1ccc(O)c(OC)c1)c1c(O)cc(OC)c2c(=O)cc(-c3ccccc3)oc12	1.6	1.8	
C=C[C@@H](c1ccccc1)c1c(O)cc(O)c2c(=O)cc(-c3ccccc3)oc12	1.5	2.4	
C=C[C@@H](c1ccc(O)c(OC)c1)c1c(O)cc(O)c2c(=O)cc(-c3ccccc3)oc12	2.3	1.7	Activity [3]: Active
C=C[C@@H](c1ccc(O)c(OC)c1)c1c(O)cc(O)c2c(=O)cc(-c3ccc(OC)cc3)oc12	1.4	2.3	
C=C[C@@H](c1ccc(OC)cc1)c1c(O)cc(O)c2c(=O)cc(-c3ccccc3)oc12	1.8	1.1	Activity [4]: inactive
C=C[C@@H](c1ccc(O)c(OC)c1)c1c(OC)cc(O)c2c(=O)cc(-c3ccccc3)oc12	1.8	3.4	Activity [5]: Active; Activity [6]: inactive; Activity [7]: Active; Activity [8]: Active; Activity [9]: Dose-dependent effect; Activity [10]: tde; Activity [11]: inactive; Activity [12]: Active; Activity [13]: Active; Activity [14]: 37.3%; Activity [15]: Active; Activity [16]: Active; Activity [17]: Active; Activity [4]: Active; Activity [18]: Active; Activity [19]: Active; Activity [20]: 37.8%; Activity [21]: Active
C=C[C@@H](c1ccc(OC)c(OC)c1)c1c(OC)cc(OC)c2c(=O)cc(-c3ccccc3)oc12	1.6	1.5	
C=C[C@@H](c1ccc(OCc2ccccc2)c(OC)c1)c1c(OCc2ccccc2)cc(OCc2ccccc2)c2c(=O)cc(-c3ccccc3)oc12	2	0.6	
C=C[C@@H](c1ccc(OCc2ccccc2)c(OC)c1)c1c(O)cc(OCc2ccccc2)c2c(=O)cc(-c3ccccc3)oc12	1.5	1.1	
C=C[C@@H](c1ccc(OC)c(OC)c1)c1c(O)cc(O)c2c(=O)cc(-c3ccccc3)oc12	1.3	1.6	
C=C[C@@H](c1ccc(O)c(OC)c1)c1c(OC)cc(OC)c2c(=O)cc(-c3ccccc3)oc12	2.3	2.2	
COc1cc(/C=C/COc2cc(OCc3ccccc3)c3c(=O)cc(-c4ccccc4)oc3c2)ccc1OCc1ccccc1	1	3	Activity [22]: inactive; Activity [3]: inactive; Activity [14]: 79.3%; Activity [4]: inactive; Activity [23]: inactive; Activity [20]: 99.2%
